# Columns and labels:
# Assay type in all cases: cell-based
# [1] = tested on: WM patient primary lymphoplasmacytic cells (LPCs); test: Apoptosis analysis (Annexin V/Propidium iodide); settings: for Apoptosis (%): 24 hours
# Method: WM cells were treated with and without the compounds described herein. Cells were incubated at 37° C. with 0.01˜4 uM of the compounds described herein. Apoptosis analysis was performed using Annexin V/Propidium iodide staining with the Apoptosis Detection Kit I (BD Pharmingen). 1×10^6/well cells were treated in 24 well plates for ˜24 hours with inhibitors or corresponding controls. A minimum of 10,000 events were acquired using a BD™ FACSCanto II flow cytometer and analyzed with BD FACS DIVA Software.
# Apoptosis analysis of WM patient primary lymphoplasmacytic cells (LPCs) was preformed following A-5 and A-14 treatment of Bone marrow mononuclear cells (BMMC) from WM patients for 24 hours. Apoptosis analysis was performed using Annexin V/Propidium iodide staining with the Apoptosis Detection Kit I (BD Pharmingen) in CD19-APC-cy7 antibody (BD Pharmingen) gated LPCs population.
# [2] = tested on: BTK-pY223; test: PhosFlow; settings: BCWM.1, Hck-wt and Hck-mu BCWM.1 cells; 0.5 μM and 0.1 μM
# Method: PhosFlow was performed to detect levels of phosphorylation for BTK-pY223 (BD Biosciences) and Hck-pY410 (Abcam) in BCWM.1 cells, in BCWM cells that stably overexpress HCK (BCWM.1_HCK-wt) and in BCWM.1 cells that stably overexpress the T338M mutant of HCK (BCWM.1_HCK-mu). Cells were fixed with BD Phosflow Fix Buffer I (BD Biosciences) at 37° C. for 10 min, then washed twice with BD Phosflow Perm/Wash Buffer I (BD Biosciences). Cells were suspended in BD Phosflow Perm/Wash Buffer I at 10 million/ml and antibodies aliquoted to flow tubes with 100 μl cells. Cells were incubated at room temperature for 30 min in the dark. Cells were washed twice with BD Phosflow Perm/Wash Buffer I before performing flow analysis using a BD™ FACSCanto II flow cytometer.
# [3] = tested on: MAP3K3
# [4] = tested on: MST1
# [5] = tested on: TAO1, TAO3; test: KiNativ kinase profiling in A375 cells; settings: Lys2, SEQ ID NO 182, 1.0 μM
# [6] = tested on: SRPK1
# [7] = tested on: EPHB2
# [8] = tested on: CAMK4
# [9] = tested on: AGK
# [10] = tested on: CLK3
# [11] = tested on: JAK1 domain2
# [12] = tested on: SMG1
# [13] = tested on: PRPK
# [14] = tested on: PHKG2
# [15] = tested on: IKKb
# [16] = tested on: Wnk1, Wnk2, Wnk3; test: KiNativ kinase profiling in A375 cells; settings: Lys2, SEQ ID NO 194, 1.0 μM
# [17] = tested on: ARAF
# [18] = tested on: CAMKK2
# [19] = tested on: FRK
# [20] = tested on: p38d, p38g; test: KiNativ kinase profiling in A375 cells; settings: Lys2, SEQ ID NO 130, 1.0 μM
# [21] = tested on: PIK3CD
# [22] = tested on: LOK
# [23] = tested on: BRAF
# [24] = tested on: MAP3K6
# [25] = tested on: IKKa
# [26] = tested on: CAMK1D
# [27] = tested on: MAP3K4
# [28] = tested on: GCK
# [29] = tested on: eEF2K
# [30] = tested on: CAMK2D
# [31] = tested on: AMPKa1, AMPKa2; test: KiNativ kinase profiling in A375 cells; settings: Lys2, SEQ ID NO 4, 1.0 μM
# [32] = tested on: TEC
# [33] = tested on: FRAP
# [34] = tested on: NEK4
# [35] = tested on: MLKL
# [36] = tested on: MST2
structure (smiles),measurement,setting,value
"CCN1CCN(Cc2ccc(NC(=O)c3ccc(C)c(Oc4ccnc(Nc5cnn(C)c5)n4)c3)cc2C(F)(F)F)CC1 [(A-14), N-(4-((4-ethylpiperazin-1-yl)methyl)-3-(trifluoromethyl)phenyl)-4-methyl-3-((2-((1-methyl-1H-pyrazol-4-yl)amino)pyrimidin-4-yl)oxy)benzamide]",Apoptosis (%),"[1]; Patient 5, 0.5 μM",39.24%
same,Apoptosis (%),"[1]; Patient 5, 1.0 μM",46.86%
same,Apoptosis (%),"[1]; Patient 6, 1.0 μM",20.88%
same,Apoptosis (%),"[1]; Patient 7, 0.5 μM",22.62%
same,Apoptosis (%),"[1]; Patient 7, 1.0 μM",31.51%
same,Apoptosis (%),"[1]; Patient 8, 0.5 μM",12.9%
same,Apoptosis (%),"[1]; Patient 8, 1.0 μM",31.58%
same,Apoptosis (%),"[1]; Patient 9, 0.2 μM",24.8%
same,Apoptosis (%),"[1]; Patient 9, 1.0 μM",43.7%
same,Apoptosis (%),"[1]; Patient 10, 0.2 μM",27.9%
same,Apoptosis (%),"[1]; Patient 10, 1.0 μM",52%
same,Apoptosis (%),"[1]; Patient 11, 0.2 μM",53.1%
same,Apoptosis (%),"[1]; Patient 11, 1.0 μM",71.8%
same,apoptosis compared with DMSO control,[1]; WM patient primary LPCs,induced significant apoptosis
same,BTK phosphorylation,[2],inhibit
"CCN1CCN(Cc2ccc(NC(=O)c3ccc(C)c(Oc4cc(N)ncn4)c3)cc2C(F)(F)F)CC1 [(A-4), 3-((6-aminopyrimidin-4-yl)oxy)-N-(4-((4-ethylpiperazin-1-yl)methyl)-3-(trifluoromethyl)phenyl)-4-methylbenzamide]",inhibition of kinase labeling,[3],3.7%
same,inhibition of kinase labeling,[4],−4.7%
same,inhibition of kinase labeling,[5],76.5%
same,inhibition of kinase labeling,[6],−34.1%
same,inhibition of kinase labeling,[7],−12.8%
same,inhibition of kinase labeling,[8],5.9%
same,inhibition of kinase labeling,[9],−31.4%
same,inhibition of kinase labeling,[10],−52.8%
same,inhibition of kinase labeling,[11],−6.2%
same,inhibition of kinase labeling,[12],−4.0%
same,inhibition of kinase labeling,[13],−13.7%
same,inhibition of kinase labeling,[14],15.2%
same,inhibition of kinase labeling,[15],−12.6%
same,inhibition of kinase labeling,[16],0.2%
same,inhibition of kinase labeling,[17],12.2%
same,inhibition of kinase labeling,[18],6.2%
same,inhibition of kinase labeling,[19],91.1%
same,inhibition of kinase labeling,[20],62.5%
same,inhibition of kinase labeling,[21],2.2%
same,inhibition of kinase labeling,[22],19.9%
same,inhibition of kinase labeling,[23],18.9%
same,inhibition of kinase labeling,[24],−25.0%
same,inhibition of kinase labeling,[25],−17.0%
same,inhibition of kinase labeling,[26],−6.0%
same,inhibition of kinase labeling,[27],19.2%
same,inhibition of kinase labeling,[28],94.9%
same,inhibition of kinase labeling,[29],−30.5%
same,inhibition of kinase labeling,[30],−8.1%
same,inhibition of kinase labeling,[31],16.3%
same,inhibition of kinase labeling,[32],−12.8%
same,inhibition of kinase labeling,[33],−7.5%
same,inhibition of kinase labeling,[34],1.5%
same,inhibition of kinase labeling,[35],−14.9%
same,inhibition of kinase labeling,[36],−6.2%

# — patent US10633348B2, “Methods to treat lymphoplasmacytic lymphoma” (Dana-Farber Cancer Institute, Inc., priority 2013, dated 2020)
